Measured values from PubChem BioAssay AID248 (DTP/NCI, 2004).
“And” between values parts separate entries of the source, which are not always exact repeats. Equal entries are not always repeated. Inconclusive results and toxic doses are left out.

System: L1210 leukemia ip in BDF1 mice, survival T/C
Assay: NCI In Vivo Anticancer Drug Screen. Data for tumor model L1210 Leukemia (intraperitoneal) in B6D2F1 (BDF1) mice
Details: higher = longer survival
How it was run: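 Antitumor effect is assessed in tumor-bearing animals. Survival in the compound arm is compared with a vehicle-dosed control arm and expressed as their quotient.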

Structure (SMILES): CCCCCCCCCCCCCCCC(=O)OCC1OC(n2ccc(N)nc2=O)C(O)C1O (stereo not drawn)
- T/C (endpoint: mean survival time, dose: 5.0 mg/kg/injection, schedule: Q01DX005 (ip), vehicle: other): 150 % of control
- T/C (endpoint: mean survival time, dose: 6.0 mg/kg/injection, schedule: Q01DX009 (ip), vehicle: saline with Tween-80): 200 % of control
- T/C (endpoint: mean survival time, dose: 8.8 mg/kg/injection, schedule: Q01DX009 (ip), vehicle: saline with Tween-80): 210 % of control
- T/C (endpoint: mean survival time, dose: 10.0 mg/kg/injection, schedule: Q01DX005 (ip), vehicle: other): 182 % of control and 183 % of control and 198 % of control
- T/C (endpoint: mean survival time, dose: 10.0 mg/kg/injection, schedule: Q06HX008 (ip), vehicle: other): 236 % of control
- T/C (endpoint: mean survival time, dose: 12.0 mg/kg/injection, schedule: Q01DX009 (ip), vehicle: saline with Tween-80): 242 % of control
- T/C (endpoint: mean survival time, dose: 12.5 mg/kg/injection, schedule: Q01DX001 (ip), vehicle: saline): 153 % of control
- T/C (endpoint: mean survival time, dose: 13.0 mg/kg/injection, schedule: Q01DX009 (ip), vehicle: saline with Tween-80): 244 % of control (2×) and 260 % of control
- T/C (endpoint: mean survival time, dose: 15.0 mg/kg/injection, schedule: Q01DX005 (ip), vehicle: other): 210 % of control and 231 % of control and 237 % of control
- T/C (endpoint: mean survival time, dose: 15.0 mg/kg/injection, schedule: Q01DX008 (ip), vehicle: other): 226 % of control
- T/C (endpoint: mean survival time, dose: 15.0 mg/kg/injection, schedule: Q12HX008 (ip), vehicle: other): 292 % of control
- T/C (endpoint: mean survival time, dose: 16.0 mg/kg/injection, schedule: Q06HX008 (ip), vehicle: other): 267 % of control
- T/C (endpoint: mean survival time, dose: 20.0 mg/kg/injection, schedule: Q01DX005 (ip), vehicle: other): 220 % of control and 224 % of control and 245 % of control
- T/C (endpoint: mean survival time, dose: 20.0 mg/kg/injection, schedule: Q01DX008 (ip), vehicle: other): 264 % of control
- T/C (endpoint: mean survival time, dose: 24.0 mg/kg/injection, schedule: Q01DX009 (oral), vehicle: saline with Tween-80): 119 % of control
- T/C (endpoint: mean survival time, dose: 25.0 mg/kg/injection, schedule: Q01DX001 (ip), vehicle: other): 153 % of control and 154 % of control and 174 % of control
- T/C (endpoint: mean survival time, dose: 25.0 mg/kg/injection, schedule: Q01DX001 (ip), vehicle: saline with Tween-80): 196 % of control
- T/C (endpoint: mean survival time, dose: 25.0 mg/kg/injection, schedule: Q01DX001 (ip), vehicle: saline): 165 % of control
- T/C (endpoint: mean survival time, dose: 25.0 mg/kg/injection, schedule: Q01DX005 (ip), vehicle: other): 243 % of control and 258 % of control and 273 % of control
- T/C (endpoint: mean survival time, dose: 25.0 mg/kg/injection, schedule: Q01DX008 (ip), vehicle: other): 267 % of control
- T/C (endpoint: mean survival time, dose: 25.0 mg/kg/injection, schedule: Q02DX008 (ip), vehicle: other): 270 % of control
- T/C (endpoint: mean survival time, dose: 25.0 mg/kg/injection, schedule: Q04DX008 (ip), vehicle: other): 245 % of control and 252 % of control
- T/C (endpoint: mean survival time, dose: 25.0 mg/kg/injection, schedule: Q06DX008 (ip), vehicle: other): 165 % of control and 187 % of control
- T/C (endpoint: mean survival time, dose: 25.0 mg/kg/injection, schedule: Q08DX008 (ip), vehicle: other): 178 % of control
- T/C (endpoint: mean survival time, dose: 27.0 mg/kg/injection, schedule: Q02DX005 (ip), vehicle: saline with Tween-80): 255 % of control
- T/C (endpoint: mean survival time, dose: 30.0 mg/kg/injection, schedule: Q01DX009 (ip), vehicle: saline with Tween-80): 270 % of control
- T/C (endpoint: mean survival time, dose: 30.0 mg/kg/injection, schedule: Q03HX008 (ip), vehicle: other): 192 % of control
- T/C (endpoint: mean survival time, dose: 32.0 mg/kg/injection, schedule: Q04DX003 (ip), vehicle: saline with Tween-80): 198 % of control
- T/C (endpoint: mean survival time, dose: 35.0 mg/kg/injection, schedule: Q01DX005 (ip), vehicle: other): 254 % of control and 255 % of control
- T/C (endpoint: mean survival time, dose: 36.0 mg/kg/injection, schedule: Q01DX009 (oral), vehicle: saline with Tween-80): 113 % of control
- T/C (endpoint: mean survival time, dose: 40.0 mg/kg/injection, schedule: Q03HX008 (ip), vehicle: other): 151 % of control and 167 % of control
- T/C (endpoint: mean survival time, dose: 49.0 mg/kg/injection, schedule: Q04DX003 (ip), vehicle: saline with Tween-80): 271 % of control
- T/C (endpoint: mean survival time, dose: 50.0 mg/kg/injection, schedule: Q01DX001 (ip), vehicle: other): 173 % of control and 187 % of control and 211 % of control
- T/C (endpoint: mean survival time, dose: 50.0 mg/kg/injection, schedule: Q01DX001 (ip), vehicle: saline with Tween-80): 165 % of control
- T/C (endpoint: mean survival time, dose: 50.0 mg/kg/injection, schedule: Q01DX001 (ip), vehicle: saline): 186 % of control and 207 % of control
- T/C (endpoint: mean survival time, dose: 50.0 mg/kg/injection, schedule: Q01DX009 (ip), vehicle: saline): 115 % of control
- T/C (endpoint: mean survival time, dose: 50.0 mg/kg/injection, schedule: Q04DX008 (ip), vehicle: other): 216 % of control
- T/C (endpoint: mean survival time, dose: 50.0 mg/kg/injection, schedule: Q06DX008 (ip), vehicle: other): 245 % of control and 283 % of control
- T/C (endpoint: mean survival time, dose: 50.0 mg/kg/injection, schedule: Q08DX008 (ip), vehicle: other): 283 % of control and 293 % of control
- T/C (endpoint: mean survival time, dose: 60.0 mg/kg/injection, schedule: Q02DX005 (ip), vehicle: saline with Tween-80): 182 % of control
- T/C (endpoint: mean survival time, dose: 64.0 mg/kg/injection, schedule: Q04DX003 (oral), vehicle: saline with Tween-80): 101 % of control
- T/C (endpoint: mean survival time, dose: 67.0 mg/kg/injection, schedule: Q01DX001 (ip), vehicle: saline with Tween-80): 162 % of control and 220 % of control
- T/C (endpoint: mean survival time, dose: 70.0 mg/kg/injection, schedule: Q01DX001 (ip), vehicle: saline with Tween-80): 239 % of control
- T/C (endpoint: mean survival time, dose: 75.0 mg/kg/injection, schedule: Q02DX004 (ip), vehicle: other): 244 % of control
- T/C (endpoint: mean survival time, dose: 90.0 mg/kg/injection, schedule: Q02DX004 (ip), vehicle: other): 283 % of control
- T/C (endpoint: mean survival time, dose: 98.0 mg/kg/injection, schedule: Q04DX003 (oral), vehicle: saline with Tween-80): 106 % of control
- T/C (endpoint: mean survival time, dose: 100.0 mg/kg/injection, schedule: Q01DX001 (ip), vehicle: other): 220 % of control and 253 % of control and 281 % of control
- T/C (endpoint: mean survival time, dose: 100.0 mg/kg/injection, schedule: Q01DX001 (ip), vehicle: saline): 276 % of control and 293 % of control
- T/C (endpoint: mean survival time, dose: 100.0 mg/kg/injection, schedule: Q01DX009 (ip), vehicle: saline): 96 % of control
- T/C (endpoint: mean survival time, dose: 100.0 mg/kg/injection, schedule: Q02DX008 (ip), vehicle: other): 194 % of control
- T/C (endpoint: mean survival time, dose: 100.0 mg/kg/injection, schedule: Q04DX008 (ip), vehicle: other): 286 % of control
- T/C (endpoint: mean survival time, dose: 120.0 mg/kg/injection, schedule: Q03DX004 (ip), vehicle: other): 235 % of control
- T/C (endpoint: mean survival time, dose: 140.0 mg/kg/injection, schedule: Q01DX001 (oral), vehicle: saline with Tween-80): 98 % of control
- T/C (endpoint: mean survival time, dose: 146.0 mg/kg/injection, schedule: Q04DX003 (oral), vehicle: saline with Tween-80): 106 % of control
- T/C (endpoint: mean survival time, dose: 150.0 mg/kg/injection, schedule: Q04DX008 (ip), vehicle: other): 233 % of control and 235 % of control
- T/C (endpoint: mean survival time, dose: 150.0 mg/kg/injection, schedule: Q08DX008 (ip), vehicle: other): 291 % of control
- T/C (endpoint: mean survival time, dose: 200.0 mg/kg/injection, schedule: Q01DX001 (ip), vehicle: saline): 283 % of control
- T/C (endpoint: mean survival time, dose: 214.0 mg/kg/injection, schedule: Q01DX001 (oral), vehicle: saline with Tween-80): 97 % of control
- T/C (endpoint: mean survival time, dose: 220.0 mg/kg/injection, schedule: Q04DX003 (oral), vehicle: saline with Tween-80): 104 % of control
- T/C (endpoint: mean survival time, dose: 225.0 mg/kg/injection, schedule: Q01DX001 (ip), vehicle: saline with Tween-80): 249 % of control
- T/C (endpoint: mean survival time, dose: 250.0 mg/kg/injection, schedule: Q01DX001 (ip), vehicle: other): 175 % of control and 210 % of control and 234 % of control
- T/C (endpoint: mean survival time, dose: 320.0 mg/kg/injection, schedule: Q01DX001 (oral), vehicle: saline with Tween-80): 108 % of control
- T/C (endpoint: mean survival time, dose: 337.0 mg/kg/injection, schedule: Q01DX001 (ip), vehicle: saline with Tween-80): 172 % of control
- T/C (endpoint: mean survival time, dose: 400.0 mg/kg/injection, schedule: Q01DX001 (ip), vehicle: saline): 156 % of control
- T/C (endpoint: mean survival time, dose: 480.0 mg/kg/injection, schedule: Q01DX001 (oral), vehicle: saline with Tween-80): 101 % of control
- T/C (endpoint: median survival time, dose: 75.0 mg/kg/injection, schedule: Q01DX001 (ip), vehicle: saline): 288 % of control
- T/C (endpoint: median survival time, dose: 150.0 mg/kg/injection, schedule: Q01DX001 (ip), vehicle: saline): 288 % of control
- T/C (endpoint: median survival time, dose: 300.0 mg/kg/injection, schedule: Q01DX001 (ip), vehicle: none): 98 % of control
- T/C (endpoint: median survival time, dose: 300.0 mg/kg/injection, schedule: Q01DX001 (ip), vehicle: saline): 94 % of control

Structure (SMILES): Cc1cccc(N=C2C(=O)NC(=O)NC2=O)c1
- T/C (endpoint: mean survival time, dose: 100.0 mg/kg/injection, schedule: Q01DX Z (ip), vehicle: methylcellulose (MC)): 103 % of control
- T/C (endpoint: mean survival time, dose: 200.0 mg/kg/injection, schedule: Q01DX Z (ip), vehicle: methylcellulose (MC)): 106 % of control

Structure (SMILES): CN(C)Cc1c[nH]c2ccsc12
- T/C (endpoint: mean survival time, dose: 100.0 mg/kg/injection, schedule: Q04DX003 (ip), vehicle: saline with Tween-80): 98 % of control
- T/C (endpoint: mean survival time, dose: 200.0 mg/kg/injection, schedule: Q04DX003 (ip), vehicle: saline with Tween-80): 87 % of control
